On the set-up of assay [1]: species or system B. subtilis. As to conditions: lipid monolayer on PBS pH 7.4, peptide 1 µM, extrapolated to delta pressure 0; -- = absence of interaction. As to the method: Peptide–lipid interaction was evaluated using reconstituted lipid monolayer at the air–water interface as previously described. Pure prokaryotic and eukaryotic lipids used were: POPC (1-palmitoyl-2-oleoyl-glycero-3-phosphocholine), POPE (1-palmitoyl-2-oleoyl-sn-glycero-3-phosphoethanolamine), POPG (1-palmitoyl-2-oleoyl-sn-glycero-3-phospho-(1’-rac-glycerol), and cardiolipin, all from Avanti Polar Lipid (Alabama, USA). LTA (Lipoteichoic acid from B. subtilis) was obtained from Invivogen SAS (Toulouse, France). Pure lipids were reconstituted in chloroform:methanol (2:1, v:v) at 1 mg/mL and stored at −20 °C under nitrogen. The interaction and insertion of the ENN and BEA into lipids were evaluated through the measurement of their critical pressure of insertion as previously described. Briefly, lipids were spread using a 50 µL Hamilton’s syringe at the surface of 800 µL of sterile PBS creating a lipid monolayer at the air–water interface. Lipids were added until the surface pressure reached the desired value. After 5–10 min of incubation allowing evaporation of the solvent and stabilization of the initial surface pressure, 8 µL of ENN or BEA diluted in sterile PBS at 100 µM were injected into the 800 µL sub-phase of PBS under the lipid monolayer (pH 7.4, volume 800 µL) using a 10 µL Hamilton syringe giving a final concentration of peptides of 1 µM, preliminary experiments having shown that this concentration gave optimal insertion. The variation of the surface pressure caused by peptide injection was then continuously monitored using a fully automated microtensiometer (µTROUGH SX, Kibron Inc., Helsinki, Finland) until reaching equilibrium (maximal surface pressure increase being usually obtained after 15–25 min). The critical pressure of insertion of each peptide was determined by changing the initial pressure of lipid monolayer (from 10 and 30 mN/m) and measuring the variation of pressure caused by the insertion of the peptide. The critical pressure of insertion of each peptide in a particular lipid was determined graphically and calculated as the theoretical value of initial pressure of lipid monolayer not permissive to peptide insertion, i.e., causing a variation of pressure equal to 0 mN/m.

The subject of assay [2] is BEAS-2B (human normal lung epithelial cells). The format is cell-based. As to conditions: 48 h exposure, 0-100 µM, resazurin fluorescence; means ± S.D, n = 3; read-out: IC50 on cell viability, BEAS-2B. As to the method: (§1) The impact of ENN or BEA on the viability of human cells were evaluated as previously described. Cells used were human normal lung epithelial cells BEAS-2B (ATCC CRL-9609), human intestinal cell line Caco-2 (ATCC HTB-37), human normal epidermal keratinocytes (HEK) (from Lonza), human liver cell line HEPG2 (ATCC HB-8065), human normal endothelial cells (Human Umbilical Vein Endothelial Cells, HUVEC) (from Sigma-Aldrich, Lyon, France), and human gastric cell line N87 (ATCC CRL-5822). BEAS-2B, Caco-2 and HEPG2 cells were cultured in DMEM supplemented with 10% fetal calf serum (FCS), 1% L-glutamine, and 1% antibiotics (all from Invitrogen (Carlsbad, CA, USA). N87 cells were cultured in RPMI media supplemented with 10% fetal calf serum (FCS), 1% L-glutamine, and 1% antibiotics (all from Invitrogen, Carlsbad, CA, USA). HEK and HUVEC cells were cultured in specific medium (from Lonza and Sigma Aldrich, respectively). Cells were routinely grown on 25 cm^2 flasks and maintained in a 5% CO2 incubator at 37 °C. For toxicity assay, human cells grown on 25 cm^2 flasks were detached using trypsin-EDTA solution (from Thermofisher), counted using Malassez counting chamber, diluted in appropriate culture media, and seeded into 96-well cell culture plates (Greiner bio-one, Paris, France) at approximately 10^4 cells per well. The cells were left to grow for 48–72 h at 37 °C in a 5% CO2 incubator until they reached confluence. Media from wells was then aspirated and cells were treated with 100 µL of appropriate culture media containing increasing concentrations of ENN or BEA (from 0 to 100 µM, 1:2 serial dilution). […] The plates were then incubated at 37 °C for 48 h. Resazurin-based in vitro toxicity assay kit (from Sigma-Aldrich, Lyon, France) was then used to assess the viability of the cells following manufacturer’s instructions. Briefly, resazurin stock solution was diluted 1:10 in sterile PBS containing calcium and magnesium (PBS^++, pH 7.4). Plates were aspirated and 100 µL of the diluted solution were added per wells. After 4 h incubation at 37 °C, fluorescence intensity was measured using microplate reader (Biotek, Synergy Mx, Colmar, France) with an excitation wavelength of 530 nm and an emission wavelength of 590 nm. The fluorescence values were normalized by the controls (untreated cells) and expressed as percentage of cell viability. The IC50 values of ENN or BEA (i.e., the concentrations causing a reduction of 50% of the cell viability) were calculated using GraphPad® Prism 7 software (San Diego, CA, USA). Experiments were conducted in triplicate (n = 3).

For assay [3], the system named is HEPG2 (human liver cell line). The format is cell-based. Conditions: 48 h exposure, 0-100 µM, resazurin fluorescence; means ± S.D, n = 3; read-out: IC50 on cell viability, HEPG2. As to the method:
as §1

The subject of assay [4] is Caco-2 (human intestinal cell line). The format is cell-based. As to conditions: 48 h exposure, 0-100 µM, resazurin fluorescence; means ± S.D, n = 3; read-out: IC50 on cell viability, Caco-2. As to the method: as §1
On the technique in general: The colour change of resazurin is a common sign of viable cells or microbes.

The test system of assay [5] is HUVEC (human normal endothelial cells). The format is cell-based. As to conditions: 48 h exposure, 0-100 µM, resazurin fluorescence; means ± S.D, n = 3; read-out: IC50 on cell viability, HUVEC. As to the method: as §1
Another assay deals with C. perfringens. The format is cell-based, Clostridium perfringens.

Structures are written as SMILES.

Consider four molecules from publication PMC6784244 (Toxins, 2019).

By IC50 is commonly meant the midpoint of a concentration-inhibition curve.

On to `CC[C@H](C)[C@H]1C(=O)O[C@H](C(C)C)C(=O)N(C)[C@@H]([C@@H](C)CC)C(=O)O[C@H](C(C)C)C(=O)N(C)[C@@H](C(C)C)C(=O)O[C@H](C(C)C)C(=O)N1C` [ENN A1], for which the “critical pressure of insertion, LTA” value in assay [1] is reported as 53.71 mN/m. For the same molecule, the IC50 is 6.4 ± 1.5 µM in assay [2], 5.6 ± 1.1 µM in assay [3], 2.7 ± 0.5 µM in assay [4] and 4.6 ± 0.9 µM in assay [5].
Take `CC[C@H](C)[C@H]1C(=O)O[C@H](C(C)C)C(=O)N(C)[C@@H]([C@@H](C)CC)C(=O)O[C@H](C(C)C)C(=O)N(C)[C@@H]([C@@H](C)CC)C(=O)O[C@H](C(C)C)C(=O)N1C` [ENN A]: in assay [1], the “critical pressure of insertion, LTA” value is reported as 56.1 mN/m. Besides, in the assay on C. perfringens, the “percentage of membrane permeabilization at 100 µM, 120 min” value came out at 37.1 ± 6.7%. Moreover, the “percentage of permeabilization at four times the MIC” value with C. perfringens worked out at 7.2 ± 2.5%. Further, the concentration for half-maximal inhibition (IC50) was 5.7 ± 1.2 µM in assay [2], 3 ± 0.7 µM in assay [3], 1.1 ± 0.2 µM in assay [4] and 2.8 ± 0.6 µM in assay [5].
For `CC[C@H](C)[C@H]1C(=O)O[C@H](C(C)C)C(=O)N(C)[C@@H](C(C)C)C(=O)O[C@H](C(C)C)C(=O)N(C)[C@@H](C(C)C)C(=O)O[C@H](C(C)C)C(=O)N1C` [ENN B1], in assay [1], the “critical pressure of insertion, LTA” value is 43.62 mN/m. Further, the half-inhibitory concentration (IC50) in assay [2] was 12.7 ± 2.8 µM; in assay [3], 5.6 ± 1.4 µM; in assay [4] it was 3.1 ± 0.5 µM; in assay [5], 7 ± 1.1 µM.
Consider `CC(C)[C@H]1C(=O)O[C@H](C(C)C)C(=O)N(C)[C@@H](C(C)C)C(=O)O[C@H](C(C)C)C(=O)N(C)[C@@H](C(C)C)C(=O)O[C@H](C(C)C)C(=O)N1C` [ENN B], for which, in assay [1], the “critical pressure of insertion, LTA” value is on record as 38.9 mN/m. The “percentage of membrane permeabilization at 100 µM, 120 min” value with C. perfringens is on record as 19.6 ± 7.9%. Moreover, the IC50 in assay [2] was found to be 43.7 ± 7.7 µM; in assay [3] it was 3.4 ± 0.7 µM; in assay [4], 4.6 ± 1.3 µM; in assay [5] it was 17.3 ± 3.3 µM.
